In one data set the test system is pERK1/2. In words: Western blot, inhibition of EGF-mediated formation of pERK1/2 in MDA-MB-231 cells. The format is cell-based. Particulars: Example 3 table; DMSO = 0; MDA-MB-231, EGF stimulation. As to the method:
(§1) FIG. 9 is a set of bar graphs showing a Western blot analysis of potential MEK5 inhibitors. The MDA-MB-231 triple negative breast cancer cell line was pretreated with compounds (10 μM) for 30 minutes followed by stimulation with epidermal growth factor (EGF, 50 ng/mL) for 15 minutes. Vehicle-treated cells were pretreated with DMSO for 30 minutes prior to EGF stimulation for 15 minutes. Protein visualization and quantification analysis were performed using LI-COR Odyssey Imager. * P<0.05 vs. Vehicle, one-way ANOVA followed by Tukey-Kramer test (n=3).
(§2) A number of compounds were tested for their potential as MEK5 inhibitors. The MDA-MB-231 triple negative breast cancer cell line was pretreated with 10 μM of compounds 24, 9b, 9a, 9c, 9e, 9f, 9d, 9h, 23, 7, and 15 for 30 minutes followed by stimulation with epidermal growth factor (EGF, 50 ng/mL) for 15 minutes. Vehicle-treated cells and known MEK1/2 inhibitor cells were pretreated with DMSO and U0126 respectively for 30 minutes prior to EGF stimulation for 15 minutes. Protein visualization and quantification analysis was performed using LI-COR Odyssey Imager. The results of the Western blot analysis are shown in FIG. 9. * P<0.05 vs. Vehicle, one-way ANOVA followed by Tukey-Kramer test (n=3).
(§3) MDA-MB-231 cells were grown on 10 cm cell culture plates [Sarstedt] in Dulbecco's Modified Eagle's Medium (DMEM; Gibco) with Ham's F12 Nutrient Mixture (1:1) (Invitrogen), 10% heat-inactivated FBS [Atlanta Biological and 0.5% penicillin/streptomycin [Gibco]. Cells were maintained at 37° C. with 5% CO2. Plating of the cells was done 36 hours before treatment in 35 mm culture plates [Sarstedt] and allowed to reach confluence. To test MEK-5 inhibitors, the cells were treated with epidermal growth factor (EGF; Sigma-Aldrich) 30 min after treatment with the compounds. 15 min after the addition of EGF, the cells were washed with 1×PBS [Sigma-Aldrich] and then lysed in 1% Triton X-100 buffer containing 20 mM Tris (pH 6.8), 137 mM NaCl, 25 mM beta glycerophosphate, 2 mM NaPPi, 2 mM EDTA, 1 mM Na3VO4, 10% glycerol, 5 μg/mL leupeptin, 5 μg/mL aprotinin, 2 mM benzamidine, 0.5 mM DTT, and 1 mM PMSF. The lysates were then centrifuged at 10,000 rpm for 10 min at 4° C.
(§4) Total protein content was assessed by Bradford Bio-Rad protein assay (Cat. No. 500-0006, Bio-Rad, Hercules, Calif.) and 30 μg of protein was loaded on a 8% SDS-PAGE gel for phosphorylated and total ERK1/2 and ERK5 proteins. After running the samples, gels were transferred to a nitrocellulose membrane (Cat. No. 926-31092, Licor Biosciences, Lincoln, Nebr.). After transfer, membranes were washed for 5 min with 1×PBS and blocked for 1 h in a Casein Blocking Buffer (Cat. No. 927-40200, Licor Biosciences) at room temperature. Membranes were then incubated overnight at 4° C. in primary antibody in CBB with 0.2% Tween-20. Antibodies included rabbit anti-phospho-ERK1/2 (Dilution—1:1000, Cat. No. 9101, Cell Signaling, Beverly, Mass.), mouse anti-total ERK1/2 (Dilution—1:1000, Cat. No. 9107, Cell Signaling), and rabbit anti-total ERK5 (Dilution—1:1,000, Cat. No. 3372, Cell Signaling). Mouse anti-α-Tubulin (Dilution—1:10,000, Cat. No. T5168, Sigma-Aldrich) was used as a loading control. After incubation with primary antibody, blots were washed in 1×PBS solution with 0.2% Tween-20 (1×PBS-T) and incubated with goat anti-rabbit (Dilution—1:10,000, Cat. No. 926-68021, LICOR Biosciences) and goat anti-mouse (Dilution—1:10,000, Cat. No. 926-32210, LICOR Biosciences) secondary antibodies for 1 h at room temperature. After washing the membranes with 1×PBS-T, the protein bands were visualized on an Odyssey Infrared Imager and quantified with Odyssey software (LICOR Biosciences).
For orientation: Immunoblotting shows a protein as a band on a membrane.

The next data set concerns pERK5. In words: Western blot, inhibition of EGF-mediated formation of pERK5 in MDA-MB-231 cells. The format is cell-based. Particulars: Example 3 table; DMSO = 0; MDA-MB-231, EGF stimulation. The method, then:
as §1, §2, §3, §4

In general, melting point refers to the temperature, or range, at which the solid turns liquid. As for `NC(=O)c1ccc(F)c(F)c1Nc1ccccc1F` [SC-2-37, 3,4-difluoro-2-((2-fluorophenyl)amino)benzamide], the melting point lay within 157.6 to 161.2 °C. For the same compound, the “pERK-½ decrease (%)” value in the data set with pERK1/2 came to 52.8%. In addition, the “pERK-5 decrease (%)” value with pERK5 is 56.1%.
On to `CCOc1cc(N2CCC(O)CC2)ccc1Nc1ncc2c(n1)N(C)c1ccccc1C(=O)N2C` [XMD8-92, reference compound], for which, in the data set with pERK1/2, the “pERK-½ decrease (%)” value is 50.1%. For the same compound, in the data set on pERK5, the “pERK-5 decrease (%)” value is given as 95.2%.

For the origin of these results see US11465978B2, “Anthranilic amides and the use thereof” (THE ADMINISTRATORS OF THE TULANE EDUCATIONAL FUND, priority 2013, dated 2022).
